Experiments:
Assay type in all cases: cell-based
HT29 = experiment: Cell growth inhibition assay (Cell Titer Glo, 3 days); conditions: Homo sapiens, HT-29; HT29, colon; BRAF V600E, KRAS WT, PIK3CA P449T; mean ± std; read-out: IC50 Single Agent
Procedure: (§1) Human colon tumor lines, Colo205, DLD1, HCC2998, HCT15, HCT8, HT29, KM-12, LS1034, LS174T, NCI-H508, RKO, SW1417, SW1463, SW480, SW837 and T84, and human melanoma line A375 were from ATCC. A375PF11 was derived from A375, 12R5-1, 12R5-3, 12R8-1, 12R8-3, 16R5-2, 16R6-3 and 16R6-4 are single cell clones derived from mixed populations of A375PF11 cells that were selected to grow in Compound A to concentrations of 1200 and 1600 nM. All lines were cultured in RPMI 1640 medium containing 10% fetal bovine serum (FBS).
(§2) All cells were cultured for a minimum of 72 hours prior to cell plating. Cells were assayed in a 96-well tissue culture plate (NUNC 136102) of RPMI medium containing 10% FBS for all cells at 1,000 cells per well. Approximately 24 hours after plating, cells were exposed to ten, three-fold serial dilutions of compound or the combination of the two agents at a constant molar to molar ratio of 1:10 Compound A to Compound B in RPMI media containing 10% FBS. Cells were incubated in the presence of compounds for 3 days. ATP levels were determined by adding Cell Titer Glo® (Promega) according to the manufacturer's protocol. Briefly, Cell Titer Glo® was added each plate, incubated for 30 minutes then luminescent signal was read on the SpectraMax L plate reader with a 0.5 sec integration time.
(§3) Inhibition of cell growth was estimated after treatment with compound or combination of compounds for three days and comparing the signal to cells treated with vehicle (DMSO). Cell growth was calculated relative to vehicle (DMSO) treated control wells.
(§4) Combination effects on potency were evaluated using Combination Index (CI) which was calculated with the back-interpolated IC50 values and the mutually non-exclusive equation derived by Chou and Talalay (1): CI=Da/IC50(a)+Db/IC50(b)+(Da×Db)/(IC50(a)×IC50(b))
(§5) In general, a CI value <0.9, between 0.9 and 1.1, or >1.1 indicates synergy, additivity and antagonism, respectively. In general, the smaller the CI number, the greater is the strength of synergy.
(§6) The combination effects on the response scale were quantified by Excess Over Highest Single Agent (EOHSA) based on the concept of nonlinear blending as described in detail by Peterson and Novick (2007) and Peterson (2010) [(2;3) [Peterson and Novick, 2007; Peterson, 2010]. EOHSA values are defined as increases in improvement (here, in ‘percentage points’ (ppts) difference) produced by the combination over the best single agent at its component dose level for the combination. For single agent and combination treatments, cells were exposed to compounds at a fixed-dose-ratio, and dose response curves were fit to the experimental data and analyzed using regression models. At specified total dose levels of IC50 along the dose response curve, the dose combination (corresponding to IC50) was determined for making EOHSA statistical inferences.

12R5-1 = experiment: as above; conditions: Homo sapiens; 12R5-1, melanoma, Compound A resistant clone; BRAF_V600E, KRAS WT; mean ± std; read-out: IC50 Single Agent
Procedure: as §1, §2, §3, §4, §5, §6

12R8-1 = experiment: as above; conditions: Homo sapiens; 12R8-1, melanoma, Compound A resistant clone; BRAF_V600E, KRAS WT; mean ± std; read-out: IC50 Single Agent
Procedure: as §1, §2, §3, §4, §5, §6

16R5-2 = experiment: as above; conditions: Homo sapiens; 16R5-2, melanoma, Compound A resistant clone; BRAF_V600E, KRAS WT; mean ± std; read-out: IC50 Single Agent
Procedure: as §1, §2, §3, §4, §5, §6

SW1417 = experiment: as above; conditions: Homo sapiens; SW1417, colon; BRAF V600E, KRAS WT, PIK3CA WT; mean ± std; read-out: IC50 Single Agent
Procedure: as §1, §2, §3, §4, §5, §6

KM-12 = experiment: as above; conditions: Homo sapiens, KM12; KM-12, colon; BRAF WT, KRAS WT, PIK3CA WT; mean ± std; read-out: IC50 Single Agent
Procedure: as §1, §2, §3, §4, §5, §6

[1] = system: seven Compound A resistant clones derived from the A375PF11 melanoma cell line; experiment: Cell growth inhibition assay (Cell Titer Glo, 3 days), summary over clones; conditions: Homo sapiens, A375P-F11; seven Compound A resistant clones (12R8-3, 12R8-1, 12R5-3, 16R5-2, 16R6-3, 16R6-4, 12R5-1); single agent
Procedure: as §1
All cells were cultured for a minimum of 72 hours prior to cell plating. […] ATP levels were determined by adding Cell Titer Glo® (Promega) according to the manufacturer's protocol. Briefly, Cell Titer Glo® was added each plate, incubated for 30 minutes then luminescent signal was read on the SpectraMax L plate reader with a 0.5 sec integration time.
as §3
Combination effects on potency were evaluated using Combination Index (CI) which was calculated with the back-interpolated IC50 values and the mutually non-exclusive equation derived by Chou and Talalay (1): CI=Da/IC50(a)+Db/IC50(b)+(Da×Db)/(IC50(a)×IC50(b)) […]

[2] = system: four colon cell lines with BRAF V600E mutation; experiment: Cell growth inhibition assay (Cell Titer Glo, 3 days), summary over lines; conditions: Homo sapiens; span over the four colon cell lines with BRAF V600E mutation; single agent
Procedure: (§7) Human colon tumor lines, Colo205, DLD1, HCC2998, HCT15, HCT8, HT29, KM-12, LS1034, LS174T, NCI-H508, RKO, SW1417, SW1463, SW480, SW837 and T84, and human melanoma line A375 were from ATCC.
(§8) All cells were cultured for a minimum of 72 hours prior to cell plating. […] Cells were incubated in the presence of compounds for 3 days. ATP levels were determined by adding Cell Titer Glo® (Promega) according to the manufacturer's protocol. Briefly, Cell Titer Glo® was added each plate, incubated for 30 minutes then luminescent signal was read on the SpectraMax L plate reader with a 0.5 sec integration time.
as §3, §4, §5
as §6, with “EOHSA” for “The combination effects on the response scale were quantified by Excess Over Highest Single Agent (EOHSA) based on the concept of nonlinear blending as described in detail by Peterson and Novick (2007) and Peterson (2010) [(2;3) [Peterson and Novick, 2007; Peterson, 2010]. EOHSA”

A375PF11 = experiment: Cell growth inhibition assay (Cell Titer Glo, 3 days); conditions: Homo sapiens, A375P-F11, melanoma, BRAF_V600E, KRAS WT, mean ± std, read-out: IC50 Single Agent
Procedure: as §1, §2
(§9) Inhibition of cell growth was estimated after treatment with compound or combination of compounds for three days and comparing the signal to cells treated with vehicle (DMSO). Cell growth was calculated relative to vehicle (DMSO) treated control wells. […]

NCI-H508 = experiment: as above; conditions: Homo sapiens, NCl-H508, colon, BRAF G596R, KRAS WT, PIK3CA E545K, mean ± std, read-out: IC50 Single Agent
Procedure: as §1, §2, §9

12R5-3 = experiment: as above; conditions: Homo sapiens; 12R5-3, melanoma, Compound A resistant clone; BRAF_V600E, KRAS WT; mean ± std; read-out: IC50 Single Agent
Procedure: as §1, §2, §9

HCT8 = experiment: as above; conditions: Homo sapiens, HCT-8; HCT8, colon; BRAF WT, KRAS G13D, PIK3CA E545K; mean ± std; read-out: IC50 Single Agent
Procedure: as §1, §2, §9

T84 = experiment: as above; conditions: Homo sapiens; T84, colon; BRAF WT, KRAS G13D, PIK3CA E542K; mean ± std; read-out: IC50 Single Agent
Procedure: as §1, §2, §9

SW1463 = experiment: as above; conditions: Homo sapiens; SW1463, colon; BRAF WT, KRAS G12C, PIK3CA WT; mean ± std; read-out: IC50 Single Agent
Procedure: as §1, §2, §9

12R8-3 = experiment: as above; conditions: Homo sapiens; 12R8-3, melanoma, Compound A resistant clone; BRAF_V600E, KRAS WT; mean ± std; read-out: IC50 Single Agent
Procedure: as §1, §2, §9

Colo205 = experiment: as above; conditions: Homo sapiens, COLO 205; Colo205, colon; BRAF V600E, KRAS WT, PIK3CA WT; mean ± std; read-out: IC50 Single Agent
Procedure: as §1, §2, §9

16R6-3 = experiment: as above; conditions: Homo sapiens; 16R6-3, melanoma, Compound A resistant clone; BRAF_V600E, KRAS WT; mean ± std; read-out: IC50 Single Agent
Procedure: as §1, §2, §9

RKO = experiment: as above; conditions: Homo sapiens, colon, BRAF V600E, KRAS WT, PIK3CA H1047R, mean ± std, read-out: IC50 Single Agent
Procedure: as §1, §2, §9

HCT15 = experiment: as above; conditions: Homo sapiens, HCT-15; HCT15, colon; BRAF WT, KRAS G13D, PIK3CA D549N, E545K; mean ± std; read-out: IC50 Single Agent
Procedure: as §1, §2, §9

DLD1 = experiment: as above; conditions: Homo sapiens, DLD-1; DLD1, colon; BRAF WT, KRAS G13D, PIK3CA E545K, D549N; mean ± std; read-out: IC50 Single Agent
Procedure: as §1, §2, §9

LS174T = experiment: as above; conditions: Homo sapiens, colon, BRAF WT, KRAS G12D, PIK3CA H1047R, mean ± std, read-out: IC50 Single Agent
Procedure: as §1, §2, §9

LS1034 = experiment: as above; conditions: Homo sapiens, LS-1034; LS1034, colon; BRAF WT, KRAS A146T, PIK3CA WT; mean ± std; read-out: IC50 Single Agent
Procedure: as §1, §2, §9

16R6-4 = experiment: as above; conditions: Homo sapiens; 16R6-4, melanoma, Compound A resistant clone; BRAF_V600E, KRAS WT; mean ± std; read-out: IC50 Single Agent
Procedure: as §1, §2, §9

SW837 = experiment: as above; conditions: Homo sapiens; SW837, colon; BRAF WT, KRAS G12C, PIK3CA WT; mean ± std; read-out: IC50 Single Agent
Procedure: as §1, §2, §9

SW480 = experiment: as above; conditions: Homo sapiens; SW480, colon; BRAF WT, KRAS G12C, PIK3CA WT; mean ± std; read-out: IC50 Single Agent
Procedure: as §1, §2, §9

[3] = system: 12 colon lines without BRAF V600E mutation; experiment: Cell growth inhibition assay (Cell Titer Glo, 3 days), summary over lines; conditions: Homo sapiens; the other 12 colon lines without BRAF V600E mutation; single agent
Procedure: as §7, §8, §3, §4, §5
as §6, with “EOHSA” for “The combination effects on the response scale were quantified by Excess Over Highest Single Agent (EOHSA) based on the concept of nonlinear blending as described in detail by Peterson and Novick (2007) and Peterson (2010) [(2;3) [Peterson and Novick, 2007; Peterson, 2010]. EOHSA”

HCC2998 = experiment: Cell growth inhibition assay (Cell Titer Glo, 3 days); conditions: Homo sapiens, HCC 2998; HCC2998, colon; BRAF WT, KRAS A146T, PIK3CA WT; mean ± std; read-out: IC50 Single Agent
Procedure: as §1, §2, §9

Row | SMILES | IC50 (HT29) [µM] | IC50 (12R5-1) [µM] | IC50 (12R8-1) [µM] | IC50 (16R5-2) [µM] | IC50 (SW1417) [µM] | IC50 (KM-12) [µM] | IC50 [2] [µM] | IC50 (A375PF11) [µM] | IC50 (NCI-H508) [µM] | IC50 (12R5-3) [µM] | IC50 (HCT8) [µM] | IC50 (T84) [µM] | IC50 (SW1463) [µM] | IC50 (12R8-3) [µM] | IC50 (Colo205) [µM] | IC50 (16R6-3) [µM] | IC50 (RKO) [µM] | IC50 (HCT15) [µM] | IC50 (DLD1) [µM] | IC50 (LS174T) [µM] | also measured
1 | Cn1ncc(Cl)c1-c1cc(C(=O)N[C@H](CN)Cc2ccc(F)c(F)c2)oc1Cl [Compound B, N-{(1S)-2-amino-1-[(3,4-difluorophenyl)methyl]ethyl}-5-chloro-4-(4-chloro-1-methyl-1H-pyrazol-5-yl)-2-furancarboxamide] | 0.503 ± 0.073 | > 10 | > 10 | 7.05 ± 1.33 | 2.59 ± 1.76 | 1.41 ± 0.961 | 0.29 to 2.59 | > 10 | 0.234 ± 0.247 | > 10 | 0.527 ± 0.036 | > 10 | 5.23 ± 7.4 | > 10 | 0.908 ± 0.605 | > 10 | 0.29 ± 0.07 | 4.21 ± 0.834 | > 10 | 3.75 ± 0.945 | IC50 [1]: ≥ 7 µM; IC50 (LS1034): 6.39 ± 3.55 µM; IC50 (16R6-4): > 10 µM; IC50 (SW837): > 10 µM; IC50 (SW480): 5.62 ± 1.85 µM
2 | CC(C)(C)c1nc(-c2cccc(NS(=O)(=O)c3c(F)cccc3F)c2F)c(-c2ccnc(N)n2)s1 [Compound A, N-{3-[5-(2-Amino-4-pyrimidinyl)-2-(1,1-dimethylethyl)-1,3-thiazol-4-yl]-2-fluorophenyl}-2,6-difluorobenzenesulfonamide] | 0.028 ± 0.007 | > 10 | > 10 | > 10 | 0.101 ± 0.031 | > 10 | 0.018 to 3.32 | 0.063 | > 10 | > 10 | > 10 | > 10 | > 10 | > 10 | 0.018 ± 0.003 | > 10 | 3.14 ± 3.47 | > 10 | > 10 | > 10 | IC50 [3]: > 5 µM; IC50 (HCC2998): > 10 µM; IC50 (LS1034): > 10 µM; IC50 (16R6-4): > 10 µM; IC50 (SW837): 5.44 ± 7.69 µM; IC50 (SW480): > 10 µM

From patent US9402846B2, “Combination of inhibitor of B-Raf and inhibitor of AKT in the treatment of cancer” (Novartis AG, priority 2009, dated 2016)
